Results taken from patent publication US10517889B2, “Modulators of SMAD7 expression” (Ionis Pharmaceuticals, Inc., priority 2017, dated 2019).
Strand notation (5' to 3'): a small letter for the sugar, then the base; units joined by * are phosphorothioate-linked, units joined directly phosphodiester-linked; [ ] holds rarer units or linkages, { } end groups; capitals alone tell only the bases. e = 2'-O-(2-methoxyethyl) (MOE); [5mC] = 5-methylcytosine; d = 2'-deoxy (DNA)

Tested on: human SMAD7 mRNA
Assay: Antisense inhibition of human SMAD7 mRNA expression in Hep3B cells by 5-10-5 MOE gapmers, single concentration, electroporation, RT-PCR (Example 1, Study 1 and 2)
Format: cell-based
Conditions: for % Inhibition: Study 2, electroporation with 15,000 nM antisense oligonucleotide; for % Inhibition of SMAD7 mRNA: electroporation with 15,000 nM antisense oligonucleotide (Study 2)
Outline: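 Hep3B cells (20,000/well) electroporated with 5-10-5 MOE gapmer at 5,000 nM or 15,000 nM for approximately 24 h. SMAD7 mRNA quantified by real-time PCR with primer probe set RTS5062 and normalized to RIBOGREEN total RNA. Values are percent inhibition relative to untreated controls.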

[1] = electroporation, 15,000 nM, approximately 24 hours, relative to untreated control cells, gapmers targeting SEQ ID NO: 1 and 2
[2] = 5-10-5 MOE gapmers targeting SEQ ID NO: 1 and 2
[3] = electroporation, 15,000 nM antisense oligonucleotide (Study 2), 5-10-5 MOE gapmers targeting SEQ ID NO: 1 and 2
[4] = electroporation, 5,000 nM, approximately 24 hours, relative to untreated control cells, gapmers targeting SEQ ID NO: 1 and 2

771837 (antisense eA*eG*eT*eG*eT*dT*dG*dA*dG*dG*dA*d[5mC]*dT*d[5mC]*d[5mC]*e[5mC]*e[5mC]*eA*eG*e[5mC]) [compound 771837]
% inhibition of SMAD7 mRNA expression [1]: 48%

771839 (antisense e[5mC]*eA*e[5mC]*eA*eG*d[5mC]*dA*d[5mC]*d[5mC]*dG*dT*dT*dA*d[5mC]*dT*eG*eG*eA*e[5mC]*eA) [compound 771839]
% Inhibition [2]: 21%

771840 (antisense eA*eG*eA*eT*eG*d[5mC]*dT*dT*d[5mC]*dT*dA*dG*dG*dT*dG*eA*eA*e[5mC]*e[5mC]*eA) [compound 771840]
% Inhibition of SMAD7 mRNA [2]: 30%
% inhibition of SMAD7 mRNA expression [3]: 16%

771841 (antisense eT*eT*eT*eA*eG*dA*dA*dA*d[5mC]*d[5mC]*d[5mC]*dA*dG*dA*dG*eA*e[5mC]*eA*eA*eA) [compound 771841]
% inhibition of SMAD7 mRNA expression [3]: 36%

771842 (antisense eT*eT*eG*eT*eG*dT*dT*dA*dT*dG*dA*dA*dA*dA*d[5mC]*eA*eA*eA*eA*e[5mC]) [compound 771842]
% inhibition of SMAD7 mRNA expression [3]: 6%

771843 (antisense e[5mC]*eG*e[5mC]*e[5mC]*eG*dG*d[5mC]*d[5mC]*d[5mC]*dA*d[5mC]*d[5mC]*dA*dA*d[5mC]*e[5mC]*eT*e[5mC]*eT*eG) [compound 771843]
% Inhibition [2]: 17%
% inhibition of SMAD7 mRNA expression [4]: 19%

771844 (antisense eG*eA*eA*eG*eG*dA*d[5mC]*d[5mC]*dA*dA*dG*dT*d[5mC]*d[5mC]*d[5mC]*eT*e[5mC]*eT*e[5mC]*e[5mC]) [compound 771844]
% Inhibition [2]: 0%

771845 (antisense eT*eT*e[5mC]*e[5mC]*eA*dA*dG*d[5mC]*dA*d[5mC]*dG*dG*dA*dG*dT*e[5mC]*eA*eG*e[5mC]*e[5mC]) [compound 771845]
% inhibition of SMAD7 mRNA expression [1]: 39%

771846 (antisense e[5mC]*eA*eT*eA*eT*dT*dT*dG*d[5mC]*dT*d[5mC]*d[5mC]*dA*dT*dA*eA*eA*e[5mC]*eA*eA) [compound 771846]
% Inhibition [2]: 5%

771847 (antisense e[5mC]*eA*eT*e[5mC]*eA*d[5mC]*d[5mC]*dT*dT*d[5mC]*dG*dG*dA*d[5mC]*dA*eA*eG*e[5mC]*e[5mC]*eA) [compound 771847]
% Inhibition [2]: 53%

771848 (antisense e[5mC]*e[5mC]*eA*e[5mC]*eA*d[5mC]*dA*dA*d[5mC]*d[5mC]*dA*dA*dA*dG*d[5mC]*eA*eG*eA*eA*eG) [compound 771848]
% Inhibition of SMAD7 mRNA [2]: 47%
% inhibition of SMAD7 mRNA expression [3]: 36%

771851 (antisense eG*e[5mC]*eT*eT*eT*dG*dA*dA*dA*dA*d[5mC]*dA*dT*d[5mC]*d[5mC]*e[5mC]*eA*e[5mC]*eT*eT) [compound 771851]
% Inhibition [2]: 43%
% inhibition of SMAD7 mRNA expression [4]: 25%

771852 (antisense eA*eG*eA*eT*eT*dT*dA*dA*dA*dA*dT*dT*dA*dA*dA*eA*eA*eG*e[5mC]*eA) [compound 771852]
% Inhibition [2]: 0%

771853 (antisense eA*eG*e[5mC]*eT*eT*dG*dG*dA*dA*dG*d[5mC]*d[5mC]*dA*dT*d[5mC]*eG*eG*eT*eT*eG) [compound 771853]
% inhibition of SMAD7 mRNA expression [1]: 36%

771854 (antisense eT*e[5mC]*e[5mC]*e[5mC]*e[5mC]*dG*d[5mC]*d[5mC]*dT*dT*dT*dT*d[5mC]*dT*dT*e[5mC]*e[5mC]*eT*eG*eG) [compound 771854]
% Inhibition [2]: 9%

771855 (antisense eT*e[5mC]*e[5mC]*e[5mC]*eG*dA*d[5mC]*dT*dT*dT*dG*d[5mC]*dA*dA*dG*eA*eT*eG*eA*eA) [compound 771855]
% Inhibition [2]: 38%

771856 (antisense e[5mC]*eT*eG*eA*eA*dA*dG*dA*dA*dA*dG*dT*d[5mC]*d[5mC]*d[5mC]*eG*eA*e[5mC]*eT*eT) [compound 771856]
% Inhibition of SMAD7 mRNA [2]: 35%
% inhibition of SMAD7 mRNA expression [3]: 34%

771857 (antisense e[5mC]*eG*eT*e[5mC]*eT*dT*dA*dT*dT*dG*dT*dT*dT*dT*dT*eG*eT*eT*e[5mC]*e[5mC]) [compound 771857]
% inhibition of SMAD7 mRNA expression [3]: 29%

771858 (antisense e[5mC]*eT*eG*e[5mC]*e[5mC]*dA*dA*d[5mC]*dG*dG*d[5mC]*dA*d[5mC]*dA*dG*eT*e[5mC]*eA*eT*eA) [compound 771858]
% inhibition of SMAD7 mRNA expression [3]: 31%

771859 (antisense e[5mC]*e[5mC]*eA*eG*eA*dA*dA*dA*dT*dG*d[5mC]*dA*dG*dA*d[5mC]*eA*eG*e[5mC]*eT*eA) [compound 771859]
% Inhibition [2]: 42%
% inhibition of SMAD7 mRNA expression [4]: 43%

771860 (antisense e[5mC]*eT*eG*eG*e[5mC]*dT*d[5mC]*dA*dG*dA*dG*dG*d[5mC]*dT*dG*e[5mC]*eA*eG*eT*eG) [compound 771860]
% Inhibition [2]: 20%

771861 (antisense eA*eG*eA*eA*eA*dA*d[5mC]*dA*dG*d[5mC]*d[5mC]*d[5mC]*d[5mC]*d[5mC]*d[5mC]*e[5mC]*eA*eG*e[5mC]*eA) [compound 771861]
% inhibition of SMAD7 mRNA expression [1]: 13%

771862 (antisense eT*e[5mC]*eT*eT*e[5mC]*d[5mC]*d[5mC]*d[5mC]*dA*dG*dA*dA*dA*dA*d[5mC]*eA*eG*e[5mC]*e[5mC]*e[5mC]) [compound 771862]
% Inhibition [2]: 10%

771863 (antisense e[5mC]*e[5mC]*eA*eG*e[5mC]*d[5mC]*d[5mC]*d[5mC]*d[5mC]*dT*d[5mC]*d[5mC]*dT*dG*dG*eG*eA*e[5mC]*eT*eA) [compound 771863]
% Inhibition [2]: 9%

771864 (antisense eA*eG*eA*e[5mC]*eA*dA*dA*dG*dA*dT*d[5mC]*dA*d[5mC]*dA*dG*eA*eT*e[5mC]*eA*e[5mC]) [compound 771864]
% Inhibition of SMAD7 mRNA [2]: 27%
% inhibition of SMAD7 mRNA expression [3]: 0%

771865 (antisense eA*eT*eA*eG*eG*dG*dA*dT*dA*dT*d[5mC]*dT*d[5mC]*dA*dT*e[5mC]*eA*eA*eT*eA) [compound 771865]
% inhibition of SMAD7 mRNA expression [3]: 38%

771866 (antisense eG*e[5mC]*eA*eT*eT*dT*dT*dT*d[5mC]*dT*dG*dA*dA*d[5mC]*dA*eG*eA*eG*eT*e[5mC]) [compound 771866]
% inhibition of SMAD7 mRNA expression [3]: 34%

771867 (antisense eA*e[5mC]*eT*eG*eG*dG*d[5mC]*dT*dT*d[5mC]*dA*dG*d[5mC]*dA*dA*eA*eG*eA*eT*eA) [compound 771867]
% Inhibition [2]: 19%
% inhibition of SMAD7 mRNA expression [4]: 39%

771868 (antisense eG*eG*eA*eG*eG*d[5mC]*dA*dA*dA*dT*dT*d[5mC]*dA*dT*dA*eG*eA*e[5mC]*eA*eG) [compound 771868]
% Inhibition [2]: 16%

771870 (antisense eA*eG*eG*e[5mC]*eA*d[5mC]*dA*dA*dG*dT*d[5mC]*dA*dA*dG*dG*eA*eG*eG*e[5mC]*e[5mC]) [compound 771870]
% Inhibition [2]: 15%

771871 (antisense e[5mC]*eT*e[5mC]*e[5mC]*e[5mC]*dT*d[5mC]*dT*dG*d[5mC]*d[5mC]*d[5mC]*d[5mC]*dA*dG*eG*eA*eT*eT*e[5mC]) [compound 771871]
% Inhibition [2]: 15%

771872 (antisense eT*e[5mC]*e[5mC]*e[5mC]*e[5mC]*d[5mC]*dA*d[5mC]*d[5mC]*dG*d[5mC]*dG*d[5mC]*dA*dG*eG*eG*eA*e[5mC]*eA) [compound 771872]
% Inhibition of SMAD7 mRNA [2]: 11%
% inhibition of SMAD7 mRNA expression [3]: 0%

771873 (antisense eA*eG*e[5mC]*eT*eG*d[5mC]*dT*dG*dT*d[5mC]*dA*d[5mC]*dA*dA*dG*eG*e[5mC]*e[5mC]*e[5mC]*eT) [compound 771873]
% inhibition of SMAD7 mRNA expression [3]: 31%

771874 (antisense eA*eT*eT*eA*e[5mC]*dT*dT*d[5mC]*dT*dG*dT*d[5mC]*dT*dG*d[5mC]*e[5mC]*eT*e[5mC]*e[5mC]*eG) [compound 771874]
% inhibition of SMAD7 mRNA expression [3]: 34%

771875 (antisense e[5mC]*e[5mC]*e[5mC]*e[5mC]*eG*dT*dG*d[5mC]*dA*d[5mC]*dT*d[5mC]*d[5mC]*d[5mC]*dA*eG*e[5mC]*e[5mC]*e[5mC]*eT) [compound 771875]
% Inhibition [2]: 51%
% inhibition of SMAD7 mRNA expression [4]: 42%

771876 (antisense e[5mC]*eG*eA*eG*e[5mC]*dT*d[5mC]*d[5mC]*d[5mC]*dT*d[5mC]*d[5mC]*d[5mC]*dT*dG*eG*e[5mC]*e[5mC]*e[5mC]*e[5mC]) [compound 771876]
% Inhibition [2]: 0%

771877 (antisense eT*eG*e[5mC]*eA*eG*dG*dA*dT*d[5mC]*d[5mC]*dG*dA*dT*dG*dG*eA*eA*eA*eA*eG) [compound 771877]
% inhibition of SMAD7 mRNA expression [1]: 24%

771878 (antisense e[5mC]*eA*eG*eT*eT*dT*d[5mC]*dT*dA*dG*dA*dG*dG*dG*dT*eA*eG*eG*eA*eA) [compound 771878]
% Inhibition [2]: 22%

771879 (antisense eA*eG*eG*eA*e[5mC]*d[5mC]*d[5mC]*dA*dA*dA*dG*dG*d[5mC]*dA*dG*eA*e[5mC]*e[5mC]*e[5mC]*eT) [compound 771879]
% Inhibition [2]: 23%

771880 (antisense eT*e[5mC]*e[5mC]*e[5mC]*eT*dG*dG*dT*dT*dT*dT*dG*d[5mC]*dA*dG*eG*eT*eG*eG*eT) [compound 771880]
% Inhibition of SMAD7 mRNA [2]: 41%
% inhibition of SMAD7 mRNA expression [3]: 29%

771881 (antisense eA*eT*eT*eT*eT*d[5mC]*d[5mC]*dA*dA*dA*dA*dG*dG*dA*d[5mC]*eA*eA*eA*eA*e[5mC]) [compound 771881]
% inhibition of SMAD7 mRNA expression [3]: 0%

771882 (antisense eG*e[5mC]*eA*eT*e[5mC]*dA*dT*dG*dA*dA*dA*dA*dT*d[5mC]*dT*eT*eA*eA*eT*eA) [compound 771882]
% inhibition of SMAD7 mRNA expression [3]: 35%
